Consider one molecule from article PMC6148246, “HS-1371, a novel kinase inhibitor of RIP3-mediated necroptosis” (Experimental & Molecular Medicine, 2018).

Data set [1] has as its system 293T cells. Description: RIP3 overexpression-induced cell death in 293T cells (PI staining). The format is cell-based, human. The following applies: 293T transfected with Flag-RIP3, 20 h. The method, then: Fig. 6 Possibility of HS-1371 as a drug for necroptosis-related diseases. a, b HT-29 cells were pre- or post-treated with HS-1371 for indicated time points, and RIP3 phosphorylation (a) and cell death (b) were measured by western blotting or MTT assay. Data are presented as means ± SEM. *P < 0.05, **P < 0.01, ***P < 0.001. c HT-29 cells were treated with TSZ and then post-treated with HS-1371 for indicated time points, and then cell lysates were analyzed by immunoblotting (upper panel). Cell viability was analyzed by MTT assay. Data are presented as means ± SEM. *P < 0.05, **P < 0.01, ***P < 0.001. d Cells were treated with the same conditions as (c), and cell lysates were immunoprecipitated with anti-RIP3 antibody. […] 293T cells were transfected with Flag vector or Flag-RIP3, and 20 h after transfection, cells were stained with PI. PI-positive cells were analyzed by phase-contrast fluorescence microscopy

Data set [2] relates to RAW264.7 macrophage cells. The data set can be described thus: LPS plus zVAD-induced cytokine expression in RAW264.7 cells (real-time PCR). The format is cell-based, mouse. The following applies: RAW264.7, LPS + zVAD, 5 and 10 μM, pre 1 h or post 2 h. The method, then: Total RNA was extracted using the TRIzol reagent (Life Technologies) according to the manufacturer’s instructions. Total RNA (1 μg) from each sample was converted to cDNA using MMLV reverse transcriptase (MGmed, Seoul, Korea). Equal amounts of cDNA product were used in reverse transcription-PCR conducted using the GoTaq® Green Master Mix (Promega). Real-time PCR amplification was performed using iQ™ SYBR® Green Supermix (Bio-rad). […]
HeLa, L929, and MEF cells were pretreated with HS-1371 (5 μM) for 2 h, and treated with TNF (30 ng/mL) for indicated time points. Cell lysates were analyzed by immunoblotting. […]
(a) RAW264.7 cells were treated with LPS (1 μg/mL) for indicated time points and cell lysates were analyzed by immunoblotting.
(b) RAW264.7 cells were pretreated with zVAD (20 μM) for 1 h and then treated with LPS (1 μg/mL) for indicated time points. Cell lysates were analyzed by immunoblotting.
(c) IL-6, TNF-α, and IL-1β expression levels were determined by RT-PCR analysis. […]
(d) RAW264.7 cells were pretreated with zVAD (20 μM) and HS-1371 (5 μM) for 1 h and then treated with LPS (1 μg/mL) for 4 h. Cell lysates were analyzed by immunoblotting (left panel).
IL-1β and IL-6 expression levels were determined by real-time PCR analysis. […]
(e) IL-1β, IL-6 and TNF-α expression levels were determined by real -time PCR analysis. […]
On the technique in general: Quantitative PCR measures a nucleic acid by following its amplification.

The subject of data set [3] is HT-29 cells. The data set can be described thus: TRAIL-induced necroptosis in HT-29 cells (immunoblot, MTT). Type of data set: cell-based. How it is done:
HT-29 cells expressing RIP3 shRNA, MLKL shRNA, or non-silencing control were analyzed by western blotting (upper panel), and these cells were treated with TSZ (6 h for immunoblotting, 24 h for cell death assay). Cell lysates were analyzed by immunoblotting (middle panel), and cell viability was analyzed by MTT assay (bottom panel). The results are presented as means ± SEM. *P < 0.05, **P < 0.01, ***P < 0.001. b HS-1371 protected cells not only from TNF-induced necroptosis but also from TRAIL-induced necroptosis. HT-29 cells were pretreated with indicated concentrations of HS-1371 and then treated with TRAIL + Smac + zVAD (6 h for immunoblotting, 24 h for cell death assay). Cell lysates were analyzed by immunoblotting, and cell viability was analyzed by MTT assay or phase-contrast microscopy. The results are presented as means ± SEM. *P < 0.05, **P < 0.01, ***P < 0.001. c, d HS-1371 had no effect on TNF-induced apoptosis. HT-29 cells were pretreated with HS-1371 (5 μM) for 2 h and then treated with TC or TS (TNF + either cycloheximide or SMAC mimetic, hereafter referred to as TC or TS, 6 h for immunoblotting, 24 h (TC) or 36 h (TS) for cell death assay). Cell lysates were analyzed by immunoblotting, and cell viability was analyzed by MTT assay (TC) or CellTiter-Glo Luminescent Cell Viability Assay Kit (TS). The results are presented as means ± SEM. *P < 0.05, **P < 0.01, ***P < 0.001 […]
In general terms: In western blotting, separated proteins are transferred to a membrane and probed.

Data set [4] concerns RIP3 or MLKL-deficient cells. Description: TSZ treatment of RIP3 or MLKL knockdown HT-29 cells (MTT assay). Type of data set: cell-based, human. The note with it: HT-29 shRIP3 or shMLKL, TSZ 24 h. The method, then: MISSION short-hairpin RNA (shRNA) plasmids targeting hRIP3 mRNA (NM_006871), hMLKL mRNA (NM_152649), and non-targeting control sequences (NM_027088) were obtained from Sigma-Aldrich. Lentiviral plasmids were transfected into 293TN cells (System Biosciences, LV900A-1) using Lipofectamine 2000 (Invitrogen, 11668019). Pseudoviral particles were collected 2 days after the transfection and infected into cells with polybrene (8 μg/mL). Infected cells were puromycin selected two days after infection, and knockdown was confirmed by immunoblotting.
HT-29 cells expressing RIP3 shRNA, MLKL shRNA, or non-silencing control were analyzed by western blotting (upper panel), and these cells were treated with TSZ (6 h for immunoblotting, 24 h for cell death assay). Cell lysates were analyzed by immunoblotting (middle panel), and cell viability was analyzed by MTT assay (bottom panel). The results are presented as means ± SEM. *P < 0.05, **P < 0.01, ***P < 0.001. b HS-1371 protected cells not only from TNF-induced necroptosis but also from TRAIL-induced necroptosis. […] Cell lysates were analyzed by immunoblotting, and cell viability was analyzed by MTT assay or phase-contrast microscopy. […] Cell lysates were analyzed by immunoblotting, and cell viability was analyzed by MTT assay (TC) or CellTiter-Glo Luminescent Cell Viability Assay Kit (TS). […]
On the technique in general: Tetrazolium assays rely on reduction of a dye to a coloured formazan, in cell work by metabolically active cells.

On to `Cc1ccc(Oc2ccnc3cc(-c4cnn(C5CCNCC5)c4)ccc23)cc1` [HS-1371, 7-(1-(Piperidin-4-yl)-1H-pyrazol-4-yl)-4-(p-tolyloxy)quinoline], for which the “cell death by RIP3 ectopic expression (PI-positive staining)” value in data set [1] is listed as “completely blocked”. In data set [2], the “IL-1β, IL-6 and TNF-α expression” value is “reduced”. For the same molecule, the “TRAIL-induced S227 phosphorylation of RIP3 and RIP3-mediated phosphorylation of MLKL” value in data set [3] (HT-29, TRAIL + Smac mimetic + zVAD 6 h, dose-dependent) is given as “decreased”. For the same molecule, in data set [3] (HT-29, TRAIL + Smac mimetic + zVAD 24 h, MTT), the TRAIL-induced cytotoxicity result is recorded as “reduction in cytotoxicity”. In data set [4], the “cell viability in RIP3 or MLKL-deficient cells treated with TSZ” value is given as “did not obviously affect cell viability”.
